What was measured:
[1] = tested on: panel of bacteria; assay: MIC across the panel of bacteria (Gram-positive and Gram-negative); format: cell-based; conditions: for antimicrobial activity / bioactivity (in words): over the bacterial panel; for MIC: read-out: MIC values
Procedure: (§1) The term “minimum inhibitory concentration (MIC)” means the lowest concentration of an antimicrobial agent that will inhibit the visible growth of a microorganism after overnight incubation. MIC values against bacteria, for example, the Gram-positive Staphylococcus aureus and Enterococcus faecalis and the Gram-negative Escherichia coli and Pseudomonas aeruginosa were determined by standard methods. See also P. A. Wayne, Methods for Dilution Antimicrobial Tests for Bacteria that Grow Aerobically; Approved Standard, Ninth Edition, 2012, CLSI Document M07-A9, Vol. 32 No. 2.
(§2) Biological testing procedures were adapted from prior work by Melander and coworkers. For all biological assays, laboratory strains of methicillin-susceptible Staphylococcus aureus MSSA (SH1000), Staphylococcus aureus CA-MRSA (USA300-0114), Staphylococcus aureus HA-MRSA (ATCC 33591), Escherichia coli (MC4100), Enterococcus faecalis (OG1RF), Acinetobacter baumannii (ATCC 17978), were grown with shaking at 37 °C overnight from freezer stocks in 5 mL of the indicated media: SH1000, OG1RF, MC4100, USA300-0114, and ATCC 17978 were grown in BDTM Mueller-Hinton broth (MHB), whereas ATCC 33591 was grown in BDTM tryptic soy broth (TSB). The inoculum were then streaked onto Mueller-Hinton agar (MHA) plates and grown overnight at 37 °C. From the plates, single colonies were selected, diluted into 50 mL of fresh media and grown overnight at 37 °C with shaking for use in the MIC assays. Optical density (OD) measurements were obtained using a SpectraMax iD3 plate reader (Molecular Devices, United States).
(§3) Compounds were serially diluted two-fold from stock solutions (1.0 mM) to yield twelve 100 μL test concentrations, wherein the starting concentration of dimethyl sulfoxide (DMSO) was 2.5%. Overnight S. aureus, E. faecalis, E. coli, A. baumannii, USA300-0114 (CA-MRSA), and ATCC 33591 (HA-MRSA) cultures were diluted to ca. 10^6 CFU/mL in MHB or TSB and regrown to mid-exponential phase, as determined by optical density recorded at 600 nm (OD600). All cultures were then diluted again to ca. 10^6 CFU/mL and 100 μL were inoculated into each well of a U-bottom 96-well plate (Corning, 351177) containing 100 μL of compound solution. Plates were incubated statically at 37 °C for 72 hours upon which wells were evaluated visually for bacterial growth. The MIC was determined as the lowest concentration of compound resulting in no bacterial growth visible to the naked eye, based on the highest value in three independent experiments. Aqueous DMSO controls were conducted as appropriate for each compound.
(§4) The prepared library of biscationic amphiphilic compounds was assessed for performance as antibacterial disinfectants by determining the minimum inhibitory concentration (MIC) for each against a panel of bacteria. The bacteria selected for the study were chosen to evaluate the broad spectrum antimicrobial performance of the QPCs, and therefore, included both Gram-positive and Gram-negative bacterial strains, including those with known antimicrobial resistance mechanisms. These bacteria include the Gram-positive strains of methicillin-susceptible Staphylococcus aureus [MSSA; SH1000], community-acquired methicillin-resistant Staphylococcus aureus [CA-MRSA; USA 300-0114], hospital-acquired methicillin-resistant Staphylococcus aureus [HA-MRSA; ATCC 33591] and the […], Escherichia coli [MC4100], Acinetobacter baumannii [ATCC 17498] and Pseudomonas aeruginosa [PAO1].

[2] = tested on: P. aeruginosa (PAO1); assay: MIC against P. aeruginosa; format: cell-based; conditions: Pseudomonas aeruginosa; P. aeruginosa (PAO1); 72 hours, 37 °C; read-out: MIC
Procedure: as §1, §2, §3, §4

[3] = tested on: MSSA (SH1000); assay: MIC against methicillin-susceptible S. aureus (MSSA); format: cell-based; conditions: Staphylococcus aureus; MSSA (SH1000); 72 hours, 37 °C; read-out: MIC
Procedure: as §1, §2, §3, §4

[4] = tested on: CA-MRSA (USA300-0114); assay: MIC against community-acquired methicillin-resistant S. aureus (CA-MRSA); format: cell-based; conditions: Staphylococcus aureus, 72 h
Procedure: as §1, §2, §3, §4

[5] = tested on: E. faecalis (OG1RF); assay: MIC against E. faecalis; format: cell-based; conditions: Enterococcus faecalis, 72 h
Procedure: as §1, §2, §3, §4

[6] = tested on: HA-MRSA (ATCC 33591); assay: MIC against hospital-acquired methicillin-resistant S. aureus (HA-MRSA); format: cell-based; conditions: Staphylococcus aureus, 72 h
Procedure: as §1, §2, §3, §4

[7] = tested on: E. coli (MC4100); assay: MIC against E. coli; format: cell-based; conditions: Escherichia coli, 72 hours, 37 °C
Procedure: as §1, §2, §3, §4

[8] = tested on: red blood cells; assay: Red Blood Cell (RBC) Lysis Assay (lysis20); format: cell-based, sheep; conditions: for Lysis20: concentration inducing 20% RBC lysis, sheep blood, 1 hour, 37 °C
Procedure: RBC lysis assays were performed on mechanically defibrinated sheep blood (Hemostat Labs: DSB030). An aliquot of 1.5 mL blood was placed into a microcentrifuge tube and centrifuged at 3,800 rpm for ten minutes. The supernatant was removed, and the cells were resuspended with 1 mL of phosphate-buffered saline (PBS). The suspension was centrifuged as described above, the supernatant was removed, and cells were resuspended 4 additional times in 1 mL PBS. The final cell suspension was diluted twentyfold with PBS. Compounds were serially diluted with PBS two-fold from stock solutions (1.0 mM) to yield 100 μL of twelve test concentrations on a flat-bottom 96-well plate (Corning, 351172), wherein the starting concentration of DMSO was 2.5%. To each of the wells, 100 μL of the twentyfold suspension dilution was then inoculated. TritonX (1% by volume) served as a positive control (100% lysis marker) and sterile PBS served as a negative control (0% lysis marker). Samples were then placed in an incubator at 37 °C and shaken at 200 rpm. After 1 hour, the samples were centrifuged at 3,800 rpm for ten minutes. The absorbance of the supernatant was measured with a UV spectrometer at a 540 nm wavelength. The concentration inducing 20% RBC lysis was then calculated for each compound based upon the absorbances of the TritonX and PBS controls. Aqueous DMSO controls were conducted as appropriate for each compound.
The potential cytotoxicity of the compounds was also considered with the evaluation of hemolysis (lysis20) assays with 20% lysis of red blood cells serving as an indicator of potentially toxic compounds. Finally, the bioactivity of these compounds were benchmarked against a commercial benzalkonium chloride source (BAC; 70% benzyldimethyldodecylammonium chloride, and 30% benzyldimethyltetradecylammonium chloride) as well as some previously reported disinfectant compounds from the inventors' groups; included were bisQPC ^PhP6P-10,10 as well as ^PhP2P-10,10 and 12(2)12. A detailed description of the experimental procedures used to evaluate bioactivity and hemolysis assays are described above.

[9] = tested on: A. baumannii; assay: MIC against A. baumannii; format: cell-based; conditions: Acinetobacter baumannii, 72 h
Procedure: as §1, §2, §3, §4

[10] = tested on: HA-MRSA; assay: MBEC, biofilm eradication, HA-MRSA; format: cell-based, Staphylococcus aureus; conditions: 24 hours, 37 °C, TSB
Procedure: (§5) A regrowth assay was used to establish the MBEC of a compound to evaluate the antibiofilm activity.
(§6) Biofilm eradication experiments were performed using a pegged-lid microtiter plate assay to determine the MBEC values for compounds of interest, as previously described. […] Sci. Rep. 2017, 7, 2003; and Raval, Y. S., Flurin, L., Mohamed, A., Greenwood-Quaintance, K. E., Beyenal, H., & Patel, R. In Vitro Activity of Hydrogen Peroxide and Hypochlorous Acid Generated by Electrochemical Scaffolds Against Planktonic and Biofilm Bacteria. Antimicrob Agents Chemother. 2021, 65, e01966-20. Briefly, […] of mid-log phase culture diluted to ca. 10^6 CFU/mL in tryptic soy broth (TSB) was added to wells of plat-bottom 96-well plates (Thermo Scientific, 266120) and covered with 96-pegged lid (Thermo Scientific, 445497). Plates were incubated to establish bacterial biofilms after incubation at 37 °C for 24 hours. The pegged lid was then removed, washed with PBS, and transferred to another 96-well plate containing 2-fold serial dilutions of the test compounds (the “challenge plate”). The total volume in each well was […], comprising of […] of compound diluted in water/DMSO, with a starting DMSO concentration of 2.5%, and […] of TSB. Plates were incubated statically at 37 °C for 24 hours. Next, the pegged lids were transferred to a fresh 96-well plate containing […] of TSB and incubated overnight at 37 °C. MBEC values were determined as the lowest test concentration that resulted eradicated biofilm (i.e., wells displaying no turbidity in the final plate).

[11] = tested on: P. aeruginosa; assay: MBEC, biofilm eradication, P. aeruginosa; format: cell-based, Pseudomonas aeruginosa; conditions: 24 hours, 37 °C, TSB
Procedure: as §5, §6

[12] = tested on: E. faecalis; assay: MBEC, biofilm eradication, E. faecalis; format: cell-based, Enterococcus faecalis; conditions: 24 hours, 37 °C, TSB
Procedure: as §5, §6

[13] = tested on: A. baumannii; assay: MBEC, biofilm eradication, A. baumannii; format: cell-based, Acinetobacter baumannii; conditions: 24 hours, 37 °C, TSB
Procedure: as §5, §6

[14] = tested on: panel of bacteria; conditions: Gram-positive and Gram-negative pathogens; earlier generation compound; cited from earlier work

Row | Structure (SMILES) | antimicrobial activity / bioactivity (in words) [1] | MIC [2] [µM] | MIC [3] [µM] | MIC [4] [µM] | MIC [5] [µM] | MIC [6] [µM] | MIC [7] [µM] | Lysis20 [8] [µM] | MIC [9] [µM] | MBEC [10] [µM] | MBEC [11] [µM] | MBEC [12] [µM] | MBEC [13] [µM] | MIC [1] [µM] | antimicrobial efficacy (in words, earlier work) [14] | hemolysis (lysis20) (in words) [8]
1 | CCCCCCCCCCCC[P+](CC)(CC)CC[P+](CC)(CC)CCCCCCCCCCCC [^EtP2P-12,12] | single-digit micromolar activity with just one exception | 8 | 1 | 1 | 16 | 1 | 2 | 8 | 2 | – | – | – | – | – | – | –
2 | CCCCCCCCCC[N+](C)(C)CCCCCCCCCC.[Cl-] [DDAC, didecyldimethylammonium chloride] | – | – | – | – | – | – | – | – | – | 16 | >250 | 16 | 8 | – | – | –
3 | CCCCCCCCCCC[P+](CC[P+](CCCCCCCCCCC)(C1CCCCC1)C1CCCCC1)(C1CCCCC1)C1CCCCC1 [^CyP2P-11,11] | single-digit micromolar activity | 8 | 1 | 1 | 8 | 1 | 4 | 8 | 4 | – | – | – | – | 1 to 8 | – | –
4 | CCCCCCCCCC[P+](CCCCCC[P+](CCCCCCCCCC)(c1ccccc1)c1ccccc1)(c1ccccc1)c1ccccc1 [^PhP6P-10,10, reference compound] | – | 2 | 1 | 1 | 2 | 1 | 2 | 8 | 4 | – | – | – | – | 1 to 4 | high degree of antimicrobial efficacy | –
5 | CCCCCCCCC[P+](CC[P+](CCCCCCCCC)(C1CCCCC1)C1CCCCC1)(C1CCCCC1)C1CCCCC1 [^CyP2P-9,9] | – | 32 | 1 | 1 | 16 | 2 | 16 | 125 | 16 | – | – | – | – | 16 | – | diminished hemolysis over the commercial BAC control

From patent US20260374792A1, “PHENYL-FREE BISCATIONIC QUATERNARY PHOSPHONIUM COMPOUNDS AS ANTIMICROBIAL AGENTS” (priority 2022, published 2026)
